Assay results from publication PMC12587574, “Mass balance, pharmacokinetics, metabolism, and excretion of radiolabeled acoziborole, a potential novel treatment for human African trypanosomiasis, following single microtracer oral dose to humans” (Antimicrobial Agents and Chemotherapy, 2025).
Several values for one entry are separate records, joined by “and”; a condition that tells them apart may be missing. Identical values can stand only once.

Assay: Total radioactivity in blood and plasma by accelerator mass spectrometry, phase I mass balance study
Type: in vivo, human
Conditions: 960 mg single oral dose
Procedure: Venous blood samples were collected via an indwelling cannula or by venepuncture. A 12 mL sample was taken into heparinized glass tube and chilled on ice immediately before IP administration and 3 mL samples were taken at 1, 4, 9, 12, 24, 48, 72, 96, 120, 144, 168, and 240 h and on Days 15, 31, 59, 89, and 119 after IP administration. The first 0.5 mL of blood withdrawn via cannula was discarded. One aliquot of heparinized whole blood (1 mL) per time point was stored at or below −20°C for total radioactivity analysis. The remaining blood was centrifuged, and the harvested plasma was stored at approximately −20°C for bioanalysis or transferred (exactly 1 mL) into polypropylene tubes pre-filled with 5 µL formic acid. One plasma sample (0.5 mL) was used for metabolite profiling while another (0.5 mL) was used for parent drug and SCYX-3109 metabolite analysis. The remaining plasma was used for total radioactivity analysis.
TNO (Leiden, the Netherlands) performed the analysis of total radioactivity and the metabolite profiling and identification. All blood, plasma, urine, and fecal homogenate samples were analyzed for total radioactivity by accelerator mass spectrometry (AMS). AMS analysis was performed on a 1 MV multi-element AMS, model 4110 Bo, high voltage engineering (software: AMS 155), using Australian National University (ANU) sucrose-8542 (C12H22O11) with a certified ^14C/^12C isotope ratio ([10]) as the system suitability test sample and [^14C]-paracetamol as an AMS quality check sample.
For each (diluted) sample, 5 µL blood, 5 µL plasma, 15 µL urine, or 30 mg fecal homogenate prepared in 1% CMC solution (1% CMC solution:feces ratio of 4:1) were transferred to tin foil cups. The samples were dried under a stream of nitrogen and subsequently placed in the elemental analyzer (EA, Vario Micro, Elementar, Germany), which acts as an autosampler and combustion device for the AMS. Single samples of blood, plasma, and urine were analyzed. Fecal homogenates were analyzed in triplicate, and the averaged value was reported. Total radioactivity in plasma and blood was expressed as ng equivalents (Eq) of acoziborole/mL. The LLOQ was 47.3 ngEq/mL in plasma (1.51 mBq/mL), 165.4 ngEq/mL in blood (5.28 mBq/mL), 33.8 ngEq/mL in urine (1.08 mBq/mL), and 87.1 ngEq/mL in feces (2.78 mBq/mL).
Blood-to-plasma ratio was calculated based on Cmax and AUC values. For total radioactivity excreted in urine, feces, and both combined, the following parameters were calculated: total amount of total radioactivity excreted over the time interval between t1 and t2 (Aet1−t2), Aet1−t2 expressed as a percentage of the radioactive dose administered (%Aet1−t2), CumAe, and Cum%Ae. For CumAe calculation, the recovery of total radioactivity during WinNonlin time intervals in which urine and feces were not collected was estimated using the area under the excretion rate-time curve from the end of the preceding collection interval to the start of the subsequent collection interval.

[1] = N = 6, mean ± SD, listed as [^14C]-acoziborole

CC1(C)OB(O)c2cc(NC(=O)c3ccc(F)cc3C(F)(F)F)ccc21 [acoziborole]
mean whole blood to plasma total radioactivity ratios (Cmax and AUC0–240h), interpretation: no affinity for blood cells
median tmax, total radioactivity in plasma (N = 6): 48 h
AUC0–240h, total radioactivity, whole blood (N = 6, mean ± SD): 2,250.737 ± 182.816 µg-eq*h/mL
AUC0–t, total radioactivity, plasma (N = 6, mean ± SD): 5,403.286 ± 1,561.755 µg-eq*h/mL
AUC0–t, total radioactivity, whole blood (N = 6, mean ± SD): 3,556.202 ± 3,236.208 µg-eq*h/mL
AUC0–∞, total radioactivity, plasma (N = 6, mean ± SD): 5,785.324 ± 1,105.726 µg-eq*h/mL
AUC0–∞, total radioactivity, whole blood (N = 6, mean ± SD): 5,382.336 ± 2,473.408 µg-eq*h/mL
tmax, total radioactivity, plasma (N = 6, mean ± SD): 56.0 ± 12.4 h
tmax, total radioactivity, whole blood (N = 6, mean ± SD): 68.1 ± 9.9 h
AUC0–240h, total radioactivity, plasma [1]: 2,371.786 ± 255.572 µg-eq*h/mL
t1/2, total radioactivity, plasma [1]: 11.6 days and 11.6 ± 1.98 days
t1/2, total radioactivity, whole blood [1]: 239.2 h and 239.2 ± 65.7 h
Cmax, total radioactivity, whole blood (healthy males, N = 6, mean ± SD): 12.052 ± 1.129 µg-eq/mL
Cmax, total radioactivity, plasma (healthy males, N = 6, mean ± SD, listed as [^14C]-acoziborole): 13.13 µg-eq/mL and 13.130 ± 1.776 µg-eq/mL
mean whole blood to plasma total radioactivity ratios (Cmax and AUC0–240h), interpretation (listed as [^14C]-acoziborole): equivalent distribution between blood cells and plasma
